Data from patent US20220273658A1, “SMALL MOLECULE LIVER X RECEPTOR MODULATORS AND USES THEREOF” (University of Houston System, priority 2019, published 2022).

Assays:
PDAC cells [1] = assay: enzymatic assay of glutamate levels; assay type: cell-based, human
Procedure: To further characterize the mechanisms of action of novel LXR modulators 1E5 and 3A4, metabolomic and transcriptomic analysis of pancreatic cancer cells were conducted in response to treatment. […] PDAC tumors have altered metabolism to support its growth and survival. Previous studies have reported that Kras upregulates the non-canonical use of glutamine to maintain NADPH/NADP+ ratio which in turn regulates redox homeostasis. This unconventional use of glutamine by PDAC cells fuel cancer cell proliferation and survival. Glutamine metabolism in PDAC has two unique functions: 1. Glutamine-derived Glutamate is used for glutathione (GSH) biosynthesis. 2. Glutamine facilitates generation of reducing equivalents in the form of NADPH. In PDAC mitochondria, glutamine is converted to glutamate by glutaminase enzyme (GLS1). This glutamine derived glutamate is conventionally converted to alpha-ketoglutarate by glutamate dehydrogenase (GLUD1) to fuel citric acid cycle. However, in PDAC cells glutamate is converted to aspartate in cytosol which is converted to malic acid and NADPH is produced during this process. This process is essential to maintain redox homeostasis in the tumor. However, this non-canonical use of glutamine is dispensable in non-malignant cells. […]

LXR proteins = molecular target: T1, LXR proteins (Homo sapiens, UniProt P55055); assay: LXR protein levels after long-term treatment of pancreatic cancer cells; assay type: cell-based; conditions: long-term treatments
T1 construct: expression of LXR proteins in different pancreatic cancer cell lines following long-term treatments; endogenous in cells; host or cells: pancreatic cancer cell lines (BxPC-3, MIA PaCa-2, PANC-1 named elsewhere)
Procedure: (§1) To elucidate mechanisms of inverse agonism by the novel ligands, TR-FRET experiments were conducted to determine the effects of 1E5 and 3A4 on the recruitment of NR co-activators and co-repressors. […] In addition to their functions as inverse agonists, extended treatments with 1E5 and 3A4 also destabilized or decreased LXR proteins.

[2] = system: LXR target genes SREBF1c, ABCA1, and ABCG1; assay: expression of LXR target genes in pancreatic cancer cell lines; assay type: cell-based, human
Excerpt: To characterize the activity of the newly discovered ligands, the expression of LXR target genes SREBF1c, ABCA1, and ABCG1 was examined following treatment with vehicle, synthetic agonist GW3965, and Compounds 1E5 and 3A4. […] Basal expression of SREBF1c, the canonical LXR target gene involved in the regulation of glucose and lipid metabolism, was disrupted by the addition of novel LXR ligands, whereas their expression was induced following treatment with synthetic agonist GW3965 in all three pancreatic cancer cell lines tested, whereas the effects on ABCA1 and ABCG1 varied between the two novel ligands and across the cell lines.
as §1

GLS1 and GOT2 = assay: qPCR of genes involved in glutamine metabolism; assay type: cell-based, human; conditions: PDAC cells
Excerpt: TCA cycle intermediates act as anaplerotic substrate for gluconeogenesis and lipogenesis. […] GOT2 converts glutamine-derived glutamate to alpha-KG. During this process oxaloacetate is converted to aspartate which is required to maintain redox homeostasis. Studies have shown that inhibition of GOT2 in PDAC promotes senescence.

[3] = system: genes involved in ferroptosis; assay: quantitative PCR of genes involved in ferroptosis; assay type: cell-based, human
Excerpt: Expression profiles of ferroptosis genes in RNAseq data following 1E5 treatment were also consistent with its pro-ferroptotic actions. […] Polyamines are amino-acid derived polycationic alkylamines that are required for the growth of cells. SAT1 catalyzes the acetylation of spermidine and spermine to form N-acetylspermidine and N-acetylspermine respectively. […] SAT1 induces ferroptosis by upregulating the peroxidation of PUFA arachidonic acid. Ceramides are sphingolipids consisting of sphingosine and fatty acid acyl chain. Cellular stress leads to upregulation of ceramide synthesis which mediate caspase-dependent apoptosis. Accumulation of ceramides/hexosylceramides in the mitochondria leads to the formation of channel like structures in the mitochondrial outer membrane which increases the permeability of pro-apoptotic proteins such as cytochrome c. ER stress is also known to activate de-novo synthesis of ceramides and induce apoptosis by increasing the flow of Ca ions and upregulating the unfolded protein stress response.

LXR-LBD = assay: differential scanning fluorimetry; assay type: binding
Excerpt: (§2) The synthesis and characterization of KD-01-39, a derivative of 3A4, have not been described previously.

PDAC cells [4] = assay: pro-apoptotic caspase cleavage analysis; assay type: cell-based, human
Procedure: To determine if 1E5 and 3A4 can induce apoptosis, PDAC cells were treated with the LXR ligands and subjected to pro-apoptotic caspase cleavage analysis. […] Metabolomic profiling following treatments with the two ligands indicated the activation of two distinct cell death mechanisms. Ferroptosis is a non-apoptotic form of cell death which is characterized by accumulation of lipid peroxides by loss of glutathione peroxidase 4 (GPX4) activity. It can also be induced by accumulation of intracellular iron and depletion of reduced glutathione (GSH). GPX4 is an anti-oxidant enzyme involved in conversion of PUFA peroxides to PUFA alcohols. GSH is a critical cofactor of GPX4 and acts as a reducing agent to reduce the lipid peroxides. Therefore, direct inhibition of GPX4 activity or reduction in GSH levels trigger ferroptosis. The second mechanism of inducing ferroptosis is accumulation of polyunsaturated fatty acids (PUFAs) in cells. Studies have shown that PUFAs are the most susceptible lipids to peroxidation.
Accumulation of C18 ceramides in the mitochondria leads to the recruitment of auto phagosomes in mitochondria and induces LC3-ceramide dependent lethal mitophagy. […] Darkened circles indicate increases and the size of the circle corresponds to the significance of changes.

HPNE cells = assay: growth of non-transformed pancreatic epithelial cells (WST screen; FIG. 32D); assay type: cell-based, human; conditions: WST screen
Procedure: The initial identification and subsequent characterization of the two novel LXR ligands and their derivative compounds was carried out in screens in three human pancreatic cancer cell and one non-transformed human pancreatic epithelial cell line in three or more replicate experiments for each cell line using the WST tetrazolium salt reduction assays.
as §2

T1 sequence (P55055 whole entry): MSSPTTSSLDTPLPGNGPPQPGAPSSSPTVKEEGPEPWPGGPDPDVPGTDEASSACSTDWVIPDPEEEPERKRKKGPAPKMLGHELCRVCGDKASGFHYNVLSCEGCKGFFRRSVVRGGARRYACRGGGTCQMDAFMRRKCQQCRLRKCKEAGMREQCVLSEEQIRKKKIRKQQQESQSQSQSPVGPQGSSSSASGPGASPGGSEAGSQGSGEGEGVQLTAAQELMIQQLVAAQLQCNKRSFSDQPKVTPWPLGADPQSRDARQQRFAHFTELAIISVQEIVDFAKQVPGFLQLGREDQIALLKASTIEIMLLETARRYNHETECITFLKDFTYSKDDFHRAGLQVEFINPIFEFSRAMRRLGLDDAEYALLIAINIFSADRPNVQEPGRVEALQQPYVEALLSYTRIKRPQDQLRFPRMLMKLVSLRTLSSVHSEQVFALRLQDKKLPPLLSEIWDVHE

SMILES: O=c1cc(-c2ccccc2)nc(Nc2cccc(C(F)(F)F)c2)[nH]1 [Compound 1E5, 6-phenyl-2-{[3-(trifluoromethyl)phenyl]amino}-3,4-dihydropyrimidin-4-one]
- glutamate levels, combination treatment with BPTES (PDAC cells [1]; 1E5 plus glutaminase inhibitor BPTES): synergistic effects on reducing the glutamate levels
- intracellular levels of glutamate (PDAC cells [1]; treated for 48 hours): significantly reduced
- LXR protein levels (LXR proteins): decreased LXR protein levels
- basal expression of SREBF1c ([2]; all three pancreatic cancer cell lines): disrupted
- expression of FASN, SCD, and ACC ([2]; pancreatic cancer cells): decreased the expression
- expression of LXR target genes ([2]; three pancreatic cancer cell lines): reducing the expression of LXR target genes
- expression of GLS1 and GOT2 (GLS1 and GOT2): downregulated the expression
- expression of GPX4 and other negative regulators of ferroptosis (STMN1, RRM2) [3]: decreased the expression
- expression of SAT1 [3]: increases the expression
- LXR-LBD structure and dye dissociation with increasing temperature (LXR-LBD): disrupted the LBD structure
- pro-apoptotic caspase cleavage (PDAC cells [4]): did not
- activity against non-transformed HPNE cells (HPNE cells): little activity
